Experimental data from US20250296953A1, “3,4-THIAZOLO-STEROIDS AND METHODS OF MAKING AND USING THE SAME” (Arkansas State University - Jonesboro, priority 2018, published 2025).

Key:
[1] = test system: SF-539; assay: NCI 60 one dose screen; assay type: cell-based, human; conditions: one dose; CNS Cancer; SF-539
[2] = test system: gliosarcoma (SF-539); assay: NCI 60 five dose screen; conditions: SF-539 (CNS Cancer), five dose; for CC50: read-out: LC50
[3] = test system: NCI-H522 (NSCLC); assay: NCI 60 one dose screen; assay type: cell-based, human; conditions: Non-small Cell Lung Cancer
[4] = test system: HCT-15 (Colon Cancer); assay: NCI 60 one dose screen; assay type: cell-based, human
[5] = test system: RPMI-8226; assay: NCI 60 five dose screen; conditions: RPMI-8226 (Leukemia), five dose; for CC50: read-out: LC50
[6] = test system: 60 different human tumor cell lines; assay: NCI Development Therapeutics Program 60 cell line screen, one dose; assay type: cell-based
[7] = test system: SR; assay: NCI 60 five dose screen; conditions: SR (Leukemia), five dose; for CC50: read-out: LC50
[8] = test system: SF-295; assay: NCI 60 one dose screen; assay type: cell-based, human; conditions: one dose; CNS Cancer; SF-295
[9] = Non-small Cell Lung Cancer, A549/ATCC
[10] = Non-small Cell Lung Cancer, EKVX
[11] = Non-small Cell Lung Cancer, HOP-62
[12] = Non-small Cell Lung Cancer, HOP-92
[13] = Non-small Cell Lung Cancer, NCI-H23
[14] = Non-small Cell Lung Cancer, NCI-H226
[15] = Non-small Cell Lung Cancer, NCI-H322M
[16] = Non-small Cell Lung Cancer, NCI-H460

Q: Which “Growth Percent” value [1] does the source give for `C[C@]12CCc3nc(Nc4ccc(O)cc4)sc3C1=CC[C@@H]1[C@@H]2CC[C@]2(C)C(=O)CC[C@@H]12` [IIa.35] here?
A: −3.84%

Q: And the GI50 [2]?
A: 1760 nM

Q: What about the TGI [2] of the same compound?
A: 3.59E−6

Q: And the CC50 [2]?
A: 7340 nM

Q: What about the “Growth Percent” value [3] of the same compound?
A: −55.25%

Q: And the “Growth Percent” value [4]?
A: −67.96%

Q: And the GI50 [5]?
A: 2350 nM

Q: And the TGI [5]?
A: 7.07E−6

Q: What about the CC50 [5] of the same compound?
A: > 100000 nM

Q: What about the “Growth Percent” value ([6]; Breast Cancer, BT-549) of the same compound?
A: 45.59%

Q: And the “Growth Percent” value ([6]; Breast Cancer, HS 578T)?
A: 53.60%

Q: And the “Growth Percent” value ([6]; Breast Cancer, MCF7)?
A: 3.11%

Q: And the “Growth Percent” value ([6]; Breast Cancer, MDA-MB-231/ATCC)?
A: 35.27%

Q: What about the “Growth Percent” value ([6]; Breast Cancer, MDA-MB-468) of the same compound?
A: −36.91%

Q: And the “Growth Percent” value ([6]; Breast Cancer, T-47D)?
A: 10.57%

Q: What about the “Growth Percent” value ([6]; CNS Cancer, SF-268) of the same compound?
A: 58.35%

Q: And the “Growth Percent” value ([6]; CNS Cancer, SNB-19)?
A: 64.60%

Q: And the “Growth Percent” value ([6]; CNS Cancer, SNB-75)?
A: 41.74%

Q: And the “Growth Percent” value ([6]; CNS Cancer, U251)?
A: 19.48%

Q: What about the “Growth Percent” value ([6]; Colon Cancer, COLO 205) of the same compound?
A: 38.45%

Q: And the “Growth Percent” value ([6]; Colon Cancer, HCC-2998)?
A: 97.70%

Q: And the “Growth Percent” value ([6]; Colon Cancer, HCT-116)?
A: −72.37%

Q: What about the “Growth Percent” value ([6]; Colon Cancer, HT29) of the same compound?
A: 10.26%

Q: What about the “Growth Percent” value ([6]; Colon Cancer, KM12) of the same compound?
A: 46.68%

Q: What about the “Growth Percent” value ([6]; Colon Cancer, SW-620) of the same compound?
A: −32.15%

Q: What about the “Growth Percent” value ([6]; Leukemia, CCRF-CEM) of the same compound?
A: 8.33%

Q: What about the “Growth Percent” value ([6]; Leukemia, HL-60(TB)) of the same compound?
A: 8.98%

Q: And the “Growth Percent” value ([6]; Leukemia, K-562)?
A: 10.77%

Q: What about the “Growth Percent” value ([6]; Leukemia, MOLT-4) of the same compound?
A: 10.99%

Q: And the “Growth Percent” value ([6]; Leukemia, RPMI-8226)?
A: −24.54%

Q: What about the “Growth Percent” value ([6]; Leukemia, SR) of the same compound?
A: 9.60%

Q: And the “Growth Percent” value ([6]; Melanoma, LOX IMVI)?
A: −8.01%

Q: And the “Growth Percent” value ([6]; Melanoma, M14)?
A: 58.13%

Q: And the “Growth Percent” value ([6]; Melanoma, MALME-3M)?
A: 29.71%

Q: What about the “Growth Percent” value ([6]; Melanoma, MDA-MB-435) of the same compound?
A: 35.34%

Q: And the “Growth Percent” value ([6]; Melanoma, SK-MEL-2)?
A: 72.46%

Q: What about the “Growth Percent” value ([6]; Melanoma, SK-MEL-5) of the same compound?
A: 62.03%

Q: And the “Growth Percent” value ([6]; Melanoma, SK-MEL-28)?
A: 77.86%

Q: And the “Growth Percent” value ([6]; Melanoma, UACC-62)?
A: 55.82%

Q: What about the “Growth Percent” value ([6]; Melanoma, UACC-257) of the same compound?
A: 73.38%

Q: What about the “Growth Percent” value [6, 9] of the same compound?
A: 79.28%

Q: What about the “Growth Percent” value [6, 10] of the same compound?
A: 98.04%

Q: What about the “Growth Percent” value [6, 11] of the same compound?
A: 92.69%

Q: What about the “Growth Percent” value [6, 12] of the same compound?
A: 125.71%

Q: And the “Growth Percent” value [6, 13]?
A: 70.16%

Q: And the “Growth Percent” value [6, 14]?
A: 102.70%

Q: What about the “Growth Percent” value [6, 15] of the same compound?
A: 93.36%

Q: And the “Growth Percent” value [6, 16]?
A: 65.57%

Q: What about the “Growth Percent” value ([6]; Ovarian Cancer, IGROV1) of the same compound?
A: 13.07%

Q: And the “Growth Percent” value ([6]; Ovarian Cancer, NCI/ADR-RES)?
A: 68.59%

Q: And the “Growth Percent” value ([6]; Ovarian Cancer, OVCAR-3)?
A: −31.67%

Q: What about the “Growth Percent” value ([6]; Ovarian Cancer, OVCAR-4) of the same compound?
A: 57.12%

Q: What about the “Growth Percent” value ([6]; Ovarian Cancer, OVCAR-5) of the same compound?
A: 116.69%

Q: What about the “Growth Percent” value ([6]; Ovarian Cancer, OVCAR-8) of the same compound?
A: 35.92%

Q: What about the “Growth Percent” value ([6]; Ovarian Cancer, SK-OV-3) of the same compound?
A: 107.77%

Q: What about the “Growth Percent” value ([6]; Prostate Cancer, DU-145) of the same compound?
A: 10.45%

Q: And the “Growth Percent” value ([6]; Prostate Cancer, PC-3)?
A: 39.10%

Q: What about the “Growth Percent” value ([6]; Renal Cancer, 786-0) of the same compound?
A: −3.03%

Q: What about the “Growth Percent” value ([6]; Renal Cancer, A498) of the same compound?
A: 100.87%

Q: What about the “Growth Percent” value ([6]; Renal Cancer, ACHN) of the same compound?
A: −17.29%

Q: What about the “Growth Percent” value ([6]; Renal Cancer, CAKI-1) of the same compound?
A: 47.13%

Q: And the “Growth Percent” value ([6]; Renal Cancer, RXF 393)?
A: −16.18%

Q: What about the “Growth Percent” value ([6]; Renal Cancer, SN12C) of the same compound?
A: 30.38%

Q: And the “Growth Percent” value ([6]; Renal Cancer, TK-10)?
A: 22.82%

Q: And the “Growth Percent” value ([6]; Renal Cancer, UO-31)?
A: −48.83%

Q: What about the GI50 [7] of the same compound?
A: 2720 nM

Q: What about the TGI [7] of the same compound?
A: >1.00E−4

Q: And the CC50 [7]?
A: > 100000 nM

Q: What about the “Growth Percent” value [8] of the same compound?
A: 52.47%

Q: What does the source list for `C[C@]12CCc3nc(N)sc3C1=CC[C@@H]1[C@@H]2CC[C@]2(C)C(=NNC(N)=O)CC[C@@H]12` [IVb.1]?
A: Growth Percent [1]: 87.19%; GI50 [2]: 2050 nM; TGI [2]: 5.23E−6; CC50 [2]: 19800 nM; Growth Percent [3]: −18.57%; Growth Percent [4]: −47.82%; GI50 [5]: 300 nM; TGI [5]: 1.37E−6; CC50 [5]: > 100000 nM; Growth Percent ([6]; Breast Cancer, BT-549): 107.48%; Growth Percent ([6]; Breast Cancer, HS 578T): 36.38%; Growth Percent ([6]; Breast Cancer, MCF7): −55.62%; Growth Percent ([6]; Breast Cancer, MDA-MB-231/ATCC): 35.18%; Growth Percent ([6]; Breast Cancer, MDA-MB-468): −46.23%; Growth Percent ([6]; Breast Cancer, T-47D): −21.02%; Growth Percent ([6]; CNS Cancer, SF-268): −6.41%; Growth Percent ([6]; CNS Cancer, SNB-19): −9.98%; Growth Percent ([6]; CNS Cancer, SNB-75): 99.02%; Growth Percent ([6]; CNS Cancer, U251): −69.94%; Growth Percent ([6]; Colon Cancer, COLO 205): 34.98%; Growth Percent ([6]; Colon Cancer, HCC-2998): 63.85%; Growth Percent ([6]; Colon Cancer, HCT-116): 6.35%; Growth Percent ([6]; Colon Cancer, HT29): 13.20%; Growth Percent ([6]; Colon Cancer, KM12): 20.47%; Growth Percent ([6]; Colon Cancer, SW-620): −59.20%; Growth Percent ([6]; Leukemia, CCRF-CEM): −5.86%; Growth Percent ([6]; Leukemia, HL-60(TB)): 42.82%; Growth Percent ([6]; Leukemia, K-562): −38.55%; Growth Percent ([6]; Leukemia, MOLT-4): 13.35%; Growth Percent ([6]; Leukemia, RPMI-8226): −6.28%; Growth Percent ([6]; Leukemia, SR): −21.79%; Growth Percent ([6]; Melanoma, LOX IMVI): −67.61%; Growth Percent ([6]; Melanoma, M14): −51.14%; Growth Percent ([6]; Melanoma, MALME-3M): 3.07%; Growth Percent ([6]; Melanoma, MDA-MB-435): −58.82%; Growth Percent ([6]; Melanoma, SK-MEL-5): 20.55%; Growth Percent ([6]; Melanoma, SK-MEL-28): 13.00%; Growth Percent ([6]; Melanoma, UACC-62): 38.92%; Growth Percent ([6]; Melanoma, UACC-257): 105.26%; Growth Percent [6, 9]: 0.92%; Growth Percent [6, 10]: −4.54%; Growth Percent [6, 11]: 75.49%; Growth Percent [6, 12]: 46.57%; Growth Percent [6, 13]: −44.30%; Growth Percent [6, 14]: 107.87%; Growth Percent [6, 15]: 52.42%; Growth Percent [6, 16]: −38.65%; Growth Percent ([6]; Ovarian Cancer, IGROV1): 2.90%; Growth Percent ([6]; Ovarian Cancer, NCI/ADR-RES): −5.32%; Growth Percent ([6]; Ovarian Cancer, OVCAR-3): −32.35%; Growth Percent ([6]; Ovarian Cancer, OVCAR-4): −19.07%; Growth Percent ([6]; Ovarian Cancer, OVCAR-5): 72.93%; Growth Percent ([6]; Ovarian Cancer, OVCAR-8): −2.26%; Growth Percent ([6]; Ovarian Cancer, SK-OV-3): 100.67%; Growth Percent ([6]; Prostate Cancer, PC-3): 57.29%; Growth Percent ([6]; Renal Cancer, 786-0): −9.65%; Growth Percent ([6]; Renal Cancer, A498): 91.62%; Growth Percent ([6]; Renal Cancer, ACHN): 32.38%; Growth Percent ([6]; Renal Cancer, CAKI-1): 62.97%; Growth Percent ([6]; Renal Cancer, RXF 393): 7.08%; Growth Percent ([6]; Renal Cancer, SN12C): 18.09%; Growth Percent ([6]; Renal Cancer, TK-10): 49.21%; Growth Percent ([6]; Renal Cancer, UO-31): 85.84%; GI50 [7]: 1290 nM; TGI [7]: 4.33E−6; CC50 [7]: > 100000 nM; Growth Percent [8]: 45.72%
